Values quoted from earlier work, collected in patent US9333184B2, “Composition and method for affecting male and female hormone levels” (NOKOMIS RESEARCH, INC., priority 2011, dated 2016).

Conditions: for ingested amount metabolically degraded: intestine to blood stream

NCCCNCCCCNCCCN [spermine]
ingested amount metabolically available: about 70%
ingested amount metabolically degraded: 30%

NCCCCNCCCN [spermidine]
ingested amount metabolically available: about 70%
ingested amount metabolically degraded: 30%
